Assay results published in US20260184710A1, “CASITAS B-LINEAGE LYMPHOMA PROTOONCOGENE B (CBL-B) DEGRADING COMPOUNDS AND ASSOCIATED METHODS OF USE” (Arvinas Operations, Inc., priority 2022, published 2026).

Molecular target: T1, Cbl-b (Homo sapiens, UniProt Q13191)
T1 construct: Cbl-b-HiBit KI Jurkat Cells were purchased from Promega; host or cells: Cbl-b-HiBiT knock-in Jurkat cells
Assay: Cbl-b Degradation Method B (Nano-Glo HiBiT lytic detection)
Assay type: cell-based
Conditions: Cbl-b-HiBit KI Jurkat Cells, incubated at least 6-24 hours; for DC50: half maximal degradation, read-out: Cbl-b Degredation Method B IC50; for Dmax: maximum degradation observed, read-out: Cbl-b Degredation Method B Dmax (%)
How it was run: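 An 11-point, 3-fold compound dilution was applied for 6-24 hours to Jurkat cells carrying HiBiT-tagged endogenous Cbl-b. Lytic HiBiT luminescence quantified residual protein. Outputs are DC50 and Dmax relative to DMSO control.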

T1 sequence (Q13191 whole entry): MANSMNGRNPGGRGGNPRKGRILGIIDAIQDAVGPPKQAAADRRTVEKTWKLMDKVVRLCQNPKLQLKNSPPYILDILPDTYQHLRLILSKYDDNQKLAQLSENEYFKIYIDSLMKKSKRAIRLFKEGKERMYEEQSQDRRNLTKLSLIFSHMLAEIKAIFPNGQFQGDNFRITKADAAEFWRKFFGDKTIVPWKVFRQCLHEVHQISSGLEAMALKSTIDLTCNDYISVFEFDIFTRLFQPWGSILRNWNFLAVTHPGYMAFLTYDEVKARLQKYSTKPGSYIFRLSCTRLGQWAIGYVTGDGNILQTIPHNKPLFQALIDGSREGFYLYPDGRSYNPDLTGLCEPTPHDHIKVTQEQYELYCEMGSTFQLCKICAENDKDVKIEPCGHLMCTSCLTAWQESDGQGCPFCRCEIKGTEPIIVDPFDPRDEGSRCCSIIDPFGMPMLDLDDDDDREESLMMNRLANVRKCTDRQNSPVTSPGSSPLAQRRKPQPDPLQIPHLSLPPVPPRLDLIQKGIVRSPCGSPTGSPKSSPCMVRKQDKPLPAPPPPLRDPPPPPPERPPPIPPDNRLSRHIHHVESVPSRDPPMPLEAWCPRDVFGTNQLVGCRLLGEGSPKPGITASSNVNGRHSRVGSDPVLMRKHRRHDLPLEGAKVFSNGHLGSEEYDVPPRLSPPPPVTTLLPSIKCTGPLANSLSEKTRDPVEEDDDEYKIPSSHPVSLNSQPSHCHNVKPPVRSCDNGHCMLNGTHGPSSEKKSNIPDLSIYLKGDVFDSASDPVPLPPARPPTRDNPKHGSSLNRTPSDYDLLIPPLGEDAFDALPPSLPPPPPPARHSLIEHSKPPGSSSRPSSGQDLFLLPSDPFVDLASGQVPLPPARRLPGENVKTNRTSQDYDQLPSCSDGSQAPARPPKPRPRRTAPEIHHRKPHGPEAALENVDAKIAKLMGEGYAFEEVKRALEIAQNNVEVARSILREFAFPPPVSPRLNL

| Structure (SMILES) | DC50 [nM] | Dmax [%] |
| --- | --- | --- |
| Cn1cnnc1CC1(c2cccc(N3Cc4c(cc(CN5CCN(c6cc(N7CCN(c8ccc9c(c8)C(=O)N(C8CCC(=O)NC8=O)C9=O)CC7)ncn6)CC5)cc4C(F)(F)F)C3=O)c2)COC1 (stereo not shown) [Example 62, 2-(2,6-dioxopiperidin-3-yl)-5-{4-[6-(4-{[2-(3-{3-[(4-methyl-4H-1,2,4-triazol-3-yl)methyl]oxetan-3-yl}phenyl)-3-oxo-7-(trifluoromethyl)-2,3-dihydro-1H-isoindol-5-yl]methyl}piperazin-1-yl)pyrimidin-4-yl]piperazin-1-yl}-2,3-dihydro-1H-isoindole-1,3-dione] | > 500 | – |
| Cn1cnnc1CC1(c2cccc(N3Cc4c(cc(CN5CCC(CN6CC7(CCN(c8ccc9c(c8)CN(C8CCC(=O)NC8=O)C9=O)CC7)C6)CC5)cc4C(F)(F)F)C3=O)c2)COC1 (stereo not shown) [Example 66, 3-(5-{2-[(1-{[2-(3-{3-[(4-methyl-4H-1,2,4-triazol-3-yl)methyl]oxetan-3-yl}phenyl)-3-oxo-7-(trifluoromethyl)-2,3-dihydro-1H-isoindol-5-yl]methyl}piperidin-4-yl)methyl]-2,7-diazaspiro[3.5]nonan-7-yl}-1-oxo-2,3-dihydro-1H-isoindol-2-yl)piperidine-2,6-dione] | > 500 | – |
| CC(C)n1c(=O)n(C2CCC(=O)NC2=O)c2cccc(N3CCC(CN4CCN(C[C@H]5CCCN(Cc6cc7c(c(C(F)(F)F)c6)CN(c6cccc(C8(Cc9nncn9C)CC(C#N)C8)c6)C7=O)C5)C(C)(C)C4)CC3)c21 (stereo partly drawn) [Example 288, (1r*,3r*)-3-[3-(6-{[(3S)-3-{[4-({1-[1-(2,6-dioxopiperidin-3-yl)-2-oxo-3-(propan-2-yl)-2,3-dihydro-1H-1,3-benzodiazol-4-yl]piperidin-4-yl}methyl)-2,2-dimethylpiperazin-1-yl]methyl}piperidin-1-yl]methyl}-1-oxo-4-(trifluoromethyl)-2,3-dihydro-1H-isoindol-2-yl)phenyl]-3-[(4-methyl-4H-1,2,4-triazol-3-yl)methyl]cyclobutane-1-carbonitrile] | > 500 | – |
| C[C@@H]1CN(CC2CCC(OC3CCN(c4ccc5c(n4)[C@@H](C)N(C4CCC(=O)NC4=O)C5=O)CC3)CC2)CCN1Cc1cc2c(c(C(F)(F)F)c1)CN(c1cccc([C@]3(Cc4nncn4C)C[C@H](C#N)C3)c1)C2=O (single isomer, unassigned) [Example 240, (1rs&,3rs&)-3-[3-(6-{[(2R)-2-methyl-4-{[(1rs,4rs)-4-({1-[(7R*)-6-(2,6-dioxopiperidin-3-yl)-7-methyl-5-oxo-5H,6H,7H-pyrrolo[3,4-b]pyridin-2-yl]piperidin-4-yl}oxy)cyclohexyl]methyl}piperazin-1-yl]methyl}-1-oxo-4-(trifluoromethyl)-2,3-dihydro-1H-isoindol-2-yl)phenyl]-3-[(4-methyl-4H-1,2,4-triazol-3-yl)methyl]cyclobutane-1-carbonitrile] | > 500 | – |
| Cn1cnnc1CC1(c2cccc(-n3cc4c(C(F)(F)F)cc(CN5CCC[C@H](CN6CCC[C@H](CN7CCN(c8ccc9c(c8F)CN(C8CCC(=O)NC8=O)C9=O)CC7)C6)C5)cc4n3)c2)COC1 (stereo partly drawn) [Example 155, 3-[4-fluoro-5-[4-[[(3S)-1-[[(3R)-1-[[2-[3-[3-[(4-methyl-1,2,4-triazol-3-yl)methyl]oxetan-3-yl]phenyl]-4-(trifluoromethyl)indazol-6-yl]methyl]-3-piperidyl]methyl]-3-piperidyl]methyl]piperazin-1-yl]-1-oxo-isoindolin-2-yl]piperidine-2,6-dione] | > 500 | – |

The remaining lines, values ahead:

| DC50 [nM] | Dmax [%] | Structure (SMILES) |
| --- | --- | --- |
| < 5 | > 70 | Cn1cnnc1CC1(c2cccc(N3Cc4c(cc(CN5CCC[C@H](CN6CCN(C[C@H]7CC[C@@H](OC8CCN(c9ccc%10c(c9F)CN(C9CCC(=O)NC9=O)C%10=O)CC8)CC7)CC6(C)C)C5)cc4C(F)(F)F)C3=O)c2)CCC1 (stereo partly drawn) [Example 270, 3-[4-fluoro-1-oxo-5-(4-{[(1r,4r)-4-[(3,3-dimethyl-4-{[(3S)-1-{[2-(3-{1-[(4-methyl-4H-1,2,4-triazol-3-yl)methyl]cyclobutyl}phenyl)-3-oxo-7-(trifluoromethyl)-2,3-dihydro-1H-isoindol-5-yl]methyl}piperidin-3-yl]methyl}piperazin-1-yl)methyl]cyclohexyl]oxy}piperidin-1-yl)-2,3-dihydro-1H-isoindol-2-yl]piperidine-2,6-dione] |
| > 500 | – | Cn1cnnc1CC1(c2cccc(N3Cc4c(cc(CN5CCC(CN6CCN(CC7CCN(c8ccc9c(c8)C(=O)N(C8CCC(=O)NC8=O)C9=O)CC7)CC6)CC5)cc4C(F)(F)F)C3=O)c2)COC1 (stereo not shown) [Example 46, 2-(2,6-dioxopiperidin-3-yl)-5-[4-({4-[(1-{[2-(3-{3-[(4-methyl-4H-1,2,4-triazol-3-yl)methyl]oxetan-3-yl}phenyl)-3-oxo-7-(trifluoromethyl)-2,3-dihydro-1H-isoindol-5-yl]methyl}piperidin-4-yl)methyl]piperazin-1-yl}methyl)piperidin-1-yl]-2,3-dihydro-1H-isoindole-1,3-dione] |
| < 5 | > 70 | CC(C)n1c(=O)n(C2CCC(=O)NC2=O)c2ccc(N3CCC(O[C@H]4CC[C@@H](CN5CCN(C[C@H]6CCCN(Cc7cc(C(F)(F)F)c8cn(-c9cccc(C%10(Cc%11nncn%11C)COC%10)c9)nc8c7)C6)C(C)(C)C5)CC4)CC3)cc21 (stereo partly drawn) [Example 266, 3-[2-oxo-3-(propan-2-yl)-5-(4-{[(1r,4r)-4-[(3,3-dimethyl-4-{[(3S)-1-{[2-(3-{3-[(4-methyl-4H-1,2,4-triazol-3-yl)methyl]oxetan-3-yl}phenyl)-4-(trifluoromethyl)-2H-indazol-6-yl]methyl}piperidin-3-yl]methyl}piperazin-1-yl)methyl]cyclohexyl]oxy}piperidin-1-yl)-2,3-dihydro-1H-1,3-benzodiazol-1-yl]piperidine-2,6-dione] |
| > 500 | – | Cn1cnnc1CC1(c2cccc(N3Cc4c(cc(CN5CC(CC6CN(c7ccc8c(c7)C(=O)N(C7CCC(=O)NC7=O)C8=O)C6)C5)cc4C(F)(F)F)C3=O)c2)COC1 (stereo not shown) [Example 58, 2-(2,6-dioxopiperidin-3-yl)-5-{3-[(1-{[2-(3-{3-[(4-methyl-4H-1,2,4-triazol-3-yl)methyl]oxetan-3-yl}phenyl)-3-oxo-7-(trifluoromethyl)-2,3-dihydro-1H-isoindol-5-yl]methyl}azetidin-3-yl)methyl]azetidin-1-yl}-2,3-dihydro-1H-isoindole-1,3-dione] |
| < 5 | 35 to 70 | CC1c2nc(N3CCC(O[C@H]4CC[C@H](CN5C[C@H]6C[C@@H]5CN6Cc5cc6c(c(C(F)(F)F)c5)CN(c5cccc(C7(Cc8nncn8C)CC7)c5)C6=O)CC4)CC3)ccc2C(=O)N1C1CCC(=O)NC1=O (stereo partly drawn) [Example 222, 3-[7-methyl-5-oxo-2-(4-{[(1r,4r)-4-{[(1R,4R)-5-{[2-(3-{1-[(4-methyl-4H-1,2,4-triazol-3-yl)methyl]cyclopropyl}phenyl)-3-oxo-7-(trifluoromethyl)-2,3-dihydro-1H-isoindol-5-yl]methyl}-2,5-diazabicyclo[2.2.1]heptan-2-yl]methyl}cyclohexyl]oxy}piperidin-1-yl)-5H,6H,7H-pyrrolo[3,4-b]pyridin-6-yl]piperidine-2,6-dione] |
